Counter-ions that a name gives are not always drawn.
target: CK2A1 (CK2α/β) (Homo sapiens, UniProt P68400); assay: CK2 kinase assay, CK2A1 (CK2α/β); assay type: biochemical; details: Table A; read-out: CK2A1 (CK2α/β) (IC50)
Sequence (P68400 whole entry, species assumed): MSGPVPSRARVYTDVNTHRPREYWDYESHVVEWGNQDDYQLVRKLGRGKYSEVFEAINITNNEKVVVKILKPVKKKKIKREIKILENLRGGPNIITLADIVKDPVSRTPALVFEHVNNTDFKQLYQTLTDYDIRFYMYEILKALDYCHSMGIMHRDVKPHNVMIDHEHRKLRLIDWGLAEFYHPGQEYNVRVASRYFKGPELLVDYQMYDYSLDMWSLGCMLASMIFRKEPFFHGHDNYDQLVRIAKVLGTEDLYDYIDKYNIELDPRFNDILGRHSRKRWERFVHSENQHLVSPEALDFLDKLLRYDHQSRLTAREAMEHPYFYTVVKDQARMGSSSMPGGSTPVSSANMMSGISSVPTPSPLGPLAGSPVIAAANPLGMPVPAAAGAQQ
Sequence (P67870 whole entry partner, species assumed): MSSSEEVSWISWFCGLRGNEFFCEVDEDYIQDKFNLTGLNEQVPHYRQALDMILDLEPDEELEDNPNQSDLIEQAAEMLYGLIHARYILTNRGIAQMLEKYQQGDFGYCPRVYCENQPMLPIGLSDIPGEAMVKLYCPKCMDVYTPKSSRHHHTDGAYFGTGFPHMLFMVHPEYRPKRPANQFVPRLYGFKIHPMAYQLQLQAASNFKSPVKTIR

SMILES | IC50 [nM]
N#Cc1cc(Nc2nc(NC3CC3)c3ncc(C#N)n3n2)c(Cl)c(N2CCC3C(CCN3C[C@H](O)CF)C2)c1 (stereo partly drawn) [Example 449, 2-((2-chloro-5-cyano-3-(1-((S)-3-fluoro-2-hydroxypropyl)hexahydro-1H-pyrrolo[3,2-c]pyridin-5(6H)-yl)phenyl)amino)-4-(cyclopropylamino)imidazo[2,1-f][1,2,4]triazine-7-carbonitrile] | 0.91
N#Cc1cc(Nc2nc(NC3CC3)c3ncc(C#N)n3n2)c(Cl)c(C2CCN(C3CN(CC4CC4)C3)CC2)c1 [Example 323, 2-((2-chloro-5-cyano-3-(1-(1-(cyclopropylmethyl)-3-azetidinyl)-4-piperidinyl)phenyl)amino)-4-(cyclopropylamino)imidazo [2,1-f][1,2,4]triazine-7-carbonitrile] | 0.59
COC(=O)N[C@H]1CCN(c2cc(C(N)=O)cc(Nc3nc(NC4CC4)c4ncc(C#N)n4n3)c2Cl)C[C@@H]1O [Example 388, methyl ((3S,4S)-1-(5-carbamoyl-2-chloro-3-((7-cyano-4-(cyclopropylamino)imidazo[2,1-f][1,2,4]triazin-2-yl)amino)phenyl)-3-hydroxypiperidin-4-yl)carbamate] | 5.13
CC(=O)N1CCC2CN(c3cc(C#N)cc(Nc4nc(NC5CC5)c5ncc(C#N)n5n4)c3Cl)CCC21 (stereo not drawn) [Example 446, 2-((3-(1-acetylhexahydro-1H-pyrrolo[3,2-c]pyridin-5(6H)-yl)-2-chloro-5-cyanophenyl)amino)-4-(cyclopropylamino)imidazo[2,1-f][1,2,4]triazine-7-carbonitrile] | 3.48
CC(=O)N[C@@H]1CN(c2cc(C#N)cc(Nc3nc(NC4CC4)c4ncc(C#N)n4n3)c2Cl)CC[C@H]1O (racemic) [Example 190, (+/−)-N-((3R,4R)-1-(2-chloro-5-cyano-3-((7-cyano-4-(cyclopropylamino)imidazo[2,1-f][1,2,4]triazin-2-yl)amino)phenyl)-4-hydroxypiperidin-3-yl)acetamide] | 0.48
CC(=O)N[C@H]1CCN(Cc2cc(C#N)cc(Nc3nc(NC4CC4)c4ncc(C#N)n4n3)c2Cl)C1 [Example 473, N-[(3S)-1-[(2-chloro-5-cyano-3-{[7-cyano-4-(cyclopropylamino)imidazo[2,1-f][1,2,4]triazin-2-yl]amino}phenyl)methyl]pyrrolidin-3-yl]acetamide] | 0.56
CNCCOC(=O)N1CCN(c2cc(C#N)cc(Nc3nc(NC4CC4)c4ncc(C#N)n4n3)c2Cl)CC1 [Example 71, 2-(methylamino)ethyl 4-(2-chloro-5-cyano-3-((7-cyano-4-(cyclopropylamino)imidazo[2,1-f] [1,2,4]triazin-2-yl)amino)phenyl)-1-piperazinecarboxylate] | 0.76
N#Cc1cc(Nc2nc(NC3CC3)c3ncc(C#N)n3n2)c(Cl)c(N2CCOC(CO)C2)c1 (racemic) [Example 697, (+/−)-2-((2-chloro-5-cyano-3-(2-(hydroxymethyl)morpholino)phenyl)amino)-4-(cyclopropylamino)imidazo[2,1-f][1,2,4]triazine-7-carbonitrile] | 0.2
CCNc1nc(Nc2cc(C#N)cc(N3CC[C@@H]4[C@@H](C3)OC(=O)N4[C@H]3CCOC3)c2Cl)nn2c(C#N)cnc12 (single isomer, unassigned) [Example 842] | 2.05
N#Cc1cc(Nc2nc(NC3CC3)c3ncc(C#N)n3n2)c(Cl)c(N2CCC(NC3CS(=O)(=O)C3)CC2)c1 [Example 129, 2-((2-chloro-5-cyano-3-(4-((1,1-dioxido-3-thietanyl)amino)-1-piperidinyl)phenyl)amino)-4-(cyclopropylamino)imidazo [2,1-f][1,2,4]triazine-7-carbonitrile] | 5.13
N#Cc1cc(Nc2nc(NC3CC3)c3ncc(C#N)n3n2)c(Cl)c(N2CCN3CCOC[C@@H]3C2)c1 [Example 309, (S)-2-((2-chloro-5-cyano-3-(hexahydropyrazino[2,1-c][1,4]oxazin-8(1H)-yl)phenyl)amino)-4-(cyclopropylamino)imidazo[2,1-f][1,2,4]triazine-7-carbonitrile] | 1.31
N#Cc1cc(CN2CCS(=O)(=O)CC2)c(Cl)c(Nc2nc(NC3CC3)c3ncc(C#N)n3n2)c1 [Example 671, 2-((2-chloro-5-cyano-3-((1,1-dioxidothiomorpholino)methyl)phenyl)amino)-4-(cyclopropylamino)imidazo[2,1-f][1,2,4]triazine-7-carbonitrile] | 1.71
N#Cc1cnc2c(NC3CC3)nc(Nc3cc(C(F)F)cc(N4CCOCC4)c3Cl)nn12 [Example 275, 2-((2-chloro-5-(difluoromethyl)-3-(4-morpholinyl)phenyl)amino)-4-(cyclopropylamino)imidazo[2,1-f][1,2,4]triazine-7-carbonitrile] | 3.36
COC(=O)N[C@@H]1CCN(c2cc(C(F)F)cc(Nc3nc(NC4CC4)c4ncc(C#N)n4n3)c2Cl)C[C@H]1O [Example 243, methyl (3R,4R)-1-(2-chloro-3-(7-cyano-4-(cyclopropylamino)imidazo[1,2-f][1,2,4]triazin-2-ylamino)-5-(difluoromethyl)phenyl)-3-hydroxypiperidin-4-ylcarbamate] | 2.08

Further lines, results first:

IC50 [nM] | SMILES
1.16 | COC(=O)N[C@@H]1CN(c2cc(C#N)cc(Nc3nc(NC4CC4)c4ncc(C#N)n4n3)c2Cl)C[C@H]1C (racemic) [Example 21, (+/−) methyl ((3S,4R)-1-(2-chloro-5-cyano-3-((7-cyano-4-(cyclopropylamino)imidazo [2,1-f][1,2,4]triazin-2-yl)amino)phenyl)-4-methyl-3-pyrrolidinyl)carbamate]
0.47 | CC(O)c1cc(C#N)cc(Nc2nc(NC3CC3)c3ncc(C#N)n3n2)c1Cl (racemic) [Example 677, (+/−)-2-((2-chloro-5-cyano-3-(1-hydroxyethyl)phenyl)amino)-4-(cyclopropylamino)imidazo[2,1-f][1,2,4]triazine-7-carbonitrile]
0.49 | CN1CCCC12CCN(c1cc(C#N)cc(Nc3nc(NC4CC4)c4ncc(C#N)n4n3)c1Cl)C2 (racemic) [Example 25, (+/−) 2-((2-chloro-5-cyano-3-(1-methyl-1,7-diazaspiro[4.4]non-7-yl)phenyl)amino)-4-(cyclopropylamino)imidazo [2,1-f][1,2,4]triazine-7-carbonitrile]
3 | CCNc1nc(Nc2cc(C#N)cc(N3CC[C@@H](NC(=O)OC)[C@@H](N(C)C(C)C(N)=O)C3)c2Cl)nn2c(C#N)cnc12 (stereo in doubt) [Example 769, methyl N-[(3S,4R)-3-{[(1S)-1-carbamoylethyl](methyl)amino}-1-(2-chloro-5-cyano-3-{[7-cyano-4-(ethylamino)imidazo[2,1-f][1,2,4]triazin-2-yl]amino}phenyl)piperidin-4-yl]carbamate]
1.61 | CS(=O)(=O)CC(=O)N1CC(N2CCN(c3cc(C#N)cc(Nc4nc(NC5CC5)c5ncc(C#N)n5n4)c3Cl)CC2)C1 [Example 486, 2-[(2-chloro-5-cyano-3-{4-[1-(2-methanesulfonylacetyl)azetidin-3-yl]piperazin-1-yl}phenyl)amino]-4-(cyclopropylamino)imidazo[2,1-f][1,2,4]triazine-7-carbonitrile]
0.78 | CCNc1nc(Nc2cc(C#N)cc(N3CCC(NC4COC4)CC3)c2Cl)nn2c(C#N)cnc12 [Example 363, 2-((2-chloro-5-cyano-3-(4-(oxetan-3-ylamino)piperidin-1-yl)phenyl)amino)-4-(ethylamino)imidazo[2,1-f][1,2,4]triazine-7-carbonitrile]
0.99 | CS(=O)(=O)N1CCN(CC(O)c2cc(C#N)cc(Nc3nc(NC4CC4)c4ncc(C#N)n4n3)c2Cl)CC1 (stereo not drawn) [Example 687, 2-((2-chloro-5-cyano-3-(1-hydroxy-2-(4-(methylsulfonyl)piperazin-1-yl)ethyl)phenyl)amino)-4-(cyclopropylamino)imidazo[2,1-f][1,2,4]triazine-7-carbonitrile]
0.88 | N#Cc1cc(Nc2nc(NC3CC3)c3ncc(C#N)n3n2)c(Cl)c(N2C[C@@H](O)[C@H](N3CCOCC3)C2)c1 [Example 307, 2-((2-chloro-5-cyano-3-((3R,4R)-3-hydroxy-4-(4-morpholinyl)-1-pyrrolidinyl)phenyl)amino)-4-(cyclopropylamino)imidazo[2,1-f][1,2,4]triazine-7-carbonitrile]
1.27 | C[C@@H]1CN(c2cc(C#N)cc(Nc3nc(NC4CC4)c4ncc(C#N)n4n3)c2Cl)C[C@@H]1O (racemic) [Example 19, (+/−) 2-((2-chloro-5-cyano-3-((3R,4R)-3-hydroxy-4-methyl-1-pyrrolidinyl)phenyl)amino)-4-(cyclopropylamino)imidazo [2,1-f][1,2,4]triazine-7-carbonitrile]
3.27 | CC(C)(C)[C@@H](N)C(=O)N1CC(N2CCN(c3cc(C#N)cc(Nc4nc(NC5CC5)c5ncc(C#N)n5n4)c3Cl)CC2)C1 [Example 502, 2-{[3-(4-{1-[(2R)-2-amino-3,3-dimethylbutanoyl]azetidin-3-yl}piperazin-1-yl)-2-chloro-5-cyanophenyl]amino}-4-(cyclopropylamino)imidazo[2,1-f][1,2,4]triazine-7-carbonitrile]
5.81 | CCNc1nc(Nc2cc(C#N)cc(N3CC[C@@H](NC(=O)OC)[C@H](OC(=O)C[C@@H](N)CC(C)C)C3)c2Cl)nn2c(C#N)cnc12 [Example 819, (S)-(3R,4R)-1-(2-chloro-5-cyano-3-((7-cyano-4-(ethylamino)imidazo[2,1-f][1,2,4]triazin-2-yl)amino)phenyl)-4-((methoxycarbonyl)amino)piperidin-3-yl 3-amino-5-methylhexanoate hydrochloride]
1.06 | CS(=O)(=O)N[C@@H]1CCN(c2cc(C#N)cc(Nc3nc(NC4CC4)c4ncc(C#N)n4n3)c2Cl)C[C@H]1O [Example 175, N-((3R,4R)-1-(2-chloro-5-cyano-3-((7-cyano-4-(cyclopropylamino)imidazo[2,1-f][1,2,4]triazin-2-yl)amino)phenyl)-3-hydroxypiperidin-4-yl)methanesulfonamide]
1.74 | CCNc1nc(Nc2cc(C#N)cc(N3CC[C@@H](NC(=O)OC)C(=O)C3)c2Cl)nn2c(C#N)cnc12 [Example 740, (R)-methyl (1-(2-chloro-5-cyano-3-((7-cyano-4-(ethylamino)imidazo[2,1-f][1,2,4]triazin-2-yl)amino)phenyl)-3-oxopiperidin-4-yl)carbamate]

— US9273057B2 (Bristol-Myers Squibb Company, priority 2012, dated 2016)
